Data taken from patent US20060282906A1, “Non-transgenic rodent model of Alzheimer's disease” (priority 2005, published 2006).

How the values were obtained:
rats = assay: Barnes circular platform test; format: in vivo, rat
Experimental: All rats were anesthetized using 40 mg/kg of pentobarbital (Somnotol; MTC Pharmaceuticals, Cambridge, Ontario) intraperitoneally. Body temperature was maintained at 37° C. Aβ(25-35) (50 nmol in 10 μL of saline) was injected bilaterally into the lateral ventricles. Aβ(25-35) was prepared according to established methods (Sigurdsson, et al. (1997) supra). […] (1997) supra). […] After wound suture, all rats received […] of buprenorphine intramuscularly and were allowed to recover from surgery for 7 days. Learning and memory deficits were assessed using the Barnes circular platform. There are twenty holes evenly located along the border of circular platform with a hidden escape box beneath one of the holes. The circular platform is equipped with colored cues on the surrounding wall. A bright light combined with wind from a fan hung on the ceiling above the platform provides the incentive for the rats to find the hidden box and enter the escape hole. During each trial, the rats were initially placed in the center of the platform under an inverted box, then the box was lifted up and the rat is allowed to find the hole for up to 4 minutes. The latency (time to enter the escape hole) was recorded during the trial. There was a training period (trials 1-14) performed at day −7 to day −1 before surgery (day 0). PDTC or vehicle treatment was given 30 minutes before Aβ(25-35) injections and from days 1 to 7 post-surgery. Spatial memory was then tested on day 8 (trial 15) with the escape hole placed in the same location. Spatial learning was examined by re-testing (re-acquisition) from days 9 to 15 (trials 16-29) with the escape box relocated at […] from the original location. Digital photographs were taken using a light microscope (Leitz Diaplan). […] Also, relative optical density measurements and numbers of stained cells or accumulations were measured in entire brain areas for quantitative analysis and statistically analyzed with ANOVA and Tukey post hoc test with a significance level of P<0.05. […] The staircase data are expressed as the mean±SEM. […] Data are expressed as mean±SEM. […]

Male Wistar rats [1] = assay: Montoya staircase test; format: in vivo, rat; conditions: mean±SEM
Experimental: (§1) Male Wistar rats (250 to 300 grams; Charles River, Montreal, Quebec) were divided into 4 groups: intracerebroventricular injections of Aβ(25-35) (BACHEM, Torrance, Calif.); endothelin injections into the right striatum; both Aβ(25-35) and striatal endothelin injections; and sham procedures. The Aβ(25-35) fragment was used to reduce the possibility of rapid coagulation and to allow diffusion of the peptide into the brain.
(§2) All rats were anesthetized using 40 mg/kg of pentobarbital (Somnotol; MTC Pharmaceuticals, Cambridge, Ontario) intraperitoneally. Body temperature was maintained at 37° C. Aβ(25-35) (50 nmol in 10 μL of saline) was injected bilaterally into the lateral ventricles. Aβ(25-35) was prepared according to established methods (Sigurdsson, et al. (1997) supra). Aβ(25-35) (50 nmol in 10 μL of saline at a rate of 1 μL/minute) was injected bilaterally into the lateral ventricles via a stainless-steel cannula (23-gauge; anterior/posterior −0.8, medial/lateral ±1.4, and dorsal/ventral −4.0 below dura). Two endothelin injections (6 pmol in 3 μL of saline), 1 mm apart, were made into the right striatum (Sigurdsson, et al. (1997) supra). Sham procedures involved all the surgical steps without injections of Aβ(25-35) or endothelin. After wound suture, all rats received […] of buprenorphine intramuscularly and were allowed to recover from surgery for 7 days.
For training (n=10 for each group), rats were placed into the Montoya staircase apparatus (Montoya, et al. (1991) supra) at the same time every day for 8 days (days −8 through −1) and were allowed to perform the test for 20 minutes. Rats were food-deprived for 1 day (day −9) before testing, as well as on day −8. On days −7 though −1, rats were fed 10 grams of their normal chow so that they maintained their body weight at ˜85%. Three NOYES LAB ANIMAL PRECISION FOOD PELLETS™ (Research Diets, Inc., New Brunswick, N.J.) were placed in each of the 14 wells (7 on each side). Pellets eaten were recorded from each well. Re-testing trials, which were performed 7 days after the surgical procedures (day 0), were performed for 8 days in the same way as the training trials (days 8 through 15).
Digital photographs were taken using a light microscope (Leitz Diaplan). An investigator was blinded to the identification of the rat sections while analysis was being performed. […] Also, relative optical density measurements and numbers of stained cells or accumulations were measured in entire brain areas for quantitative analysis and statistically analyzed with ANOVA and Tukey post hoc test with a significance level of P<0.05. […] The staircase data are expressed as the mean±SEM. […] Data are expressed as mean±SEM. […]

Male Wistar rats [2] = assay: Congo Red histochemistry of rat brain sections; format: in vivo; conditions: Aβ: lesions in fornix, anterior hippocampus, CA1 hippocampus; endothelin: infarct
Experimental: as §1
as §2, with “days. […]” for “days.”

Male Wistar rats [3] = assay: Quantitative immunohistochemistry: relative optical density and numbers of stained cells or accumulations; format: in vivo, rat; conditions: for APP Accumulation / GFAP Intensity / OX6 Intensity: vehicle (not in brackets), mean ± SEM, n = 4
Experimental: (§3) All rats were anesthetized using 40 mg/kg of pentobarbital (Somnotol; MTC Pharmaceuticals, Cambridge, Ontario) intraperitoneally. Body temperature was maintained at 37° C. Aβ(25-35) (50 nmol in 10 μL of saline) was injected bilaterally into the lateral ventricles. Aβ(25-35) was prepared according to established methods (Sigurdsson, et al. (1997) supra). Aβ(25-35) (50 nmol in 10 μL of saline at a rate of 1 μL/minute) was injected bilaterally into the lateral ventricles via a stainless-steel cannula (23-gauge; anterior/posterior −0.8, medial/lateral ±1.4, and dorsal/ventral −4.0 below dura). Two endothelin injections (6 pmol in 3 μL of saline), 1 mm apart, were made into the right striatum (Sigurdsson, et al. (1997) supra). Sham procedures involved all the surgical steps without injections of Aβ(25-35) or endothelin. After wound suture, all rats received 40 mg/kg of buprenorphine intramuscularly and were allowed to recover from surgery for 7 days.
(§4) Twenty-one days after surgery, all animals were euthanized via pentobarbital overdose and perfused transaortically first with saline followed by 4% formaldehyde (pH 7.4). The brains were removed and cryoprotected in 30% sucrose for 36 hours at 4° C. Coronal sections (30 pm) were cut using a cryostat.
(§5) Free-floating sections from rat brains (n=5 for each group) were treated with 0.03% hydrogen peroxide and blocked with 3 mL of horse or rabbit serum (VECTASTAIN® Elite, Vector Laboratories, Burlingame, Calif.). The following primary antibodies were diluted in filtered phosphate-buffered saline: APPa4 mouse monoclonal (Chemicon International Inc, Temecula, Calif.; 1:1000), GFAP mouse monoclonal (Sigma-Aldrich, St Louis, Mo.; 1:1000), OX-6 mouse monoclonal (Serotec, Inc., Raleigh, N.C.; 1:1000), Tau-2 mouse monoclonal (Sigma-Aldrich, St Louis, Mo.; 1:10000), NFκB(p65) goat polyclonal (Santa Cruz Biotechnologies, Santa Cruz, Calif.; 1:1000), IL-1β goat polyclonal (Santa Cruz Biotechnologies, Santa Cruz, Calif.; 1:1000), and TNF-α-M18 goat polyclonal (Santa Cruz Biotechnologies, Santa Cruz, Calif.; 1:1000). APP-, Tau-2-, GFAP-, and OX-6-stained sections were incubated with 3 mL of horse biotinylated anti-mouse secondary antibody and horse serum. NFκB(p65), IL-1β, and TNF-α-stained sections were incubated with 3 mL of biotinylated rabbit anti-goat secondary antibody and rabbit serum. Sections were then incubated in 3 mL of avidin-biotin complex followed by 0.05% diaminobenzidine. Sections were washed, air-dried, cleared in xylene, and cover-slipped. Brains to be compared were processed at the same time using the same solutions to reduce variability in immunostaining caused by separate processing.
(§6) Digital photographs were taken using a light microscope (Leitz Diaplan). An investigator was blinded to the identification of the rat sections while analysis was being performed. All immunohistochemical data that were compared was processed at the same time to reduce any variation caused by differences of intensity. A grading scale was based on both observable size and intensity of staining (n=5 for each group). Also, relative optical density measurements and numbers of stained cells or accumulations were measured in entire brain areas for quantitative analysis and statistically analyzed with ANOVA and Tukey post hoc test with a significance level of P<0.05.

Male Wistar rats [4] = assay: Immunohistochemistry of rat brain sections, grading scale of staining size and intensity; format: in vivo; parameters: key to NKκB(p65) immunostaining signal / COX-2 immunostaining signal / GFAP immunostaining signal / OX-6 immunostaining signal / APP immunostaining signal / Tau-2 immunostaining signal / TNFα immunostaining signal / Cas-3 immunostaining signal: n.s.: no positive staining; +: moderate immunostaining signal; ++: strong immunostaining signal; +++: strongest immunostaining signal
Experimental: as §3, §4, §5, §6

## S=C(S)N1CCCC1 [PDTC, pyrrolidine dithiocarbamate]
rats; 100 mg/kg 30 minutes before Aβ(25-35) injections and 7 days post-surgery, trial 15 (day 8) vs trial 14 (day −1)
  Effect on Aβ(25-35) induced increases in latency: prevented the Aβ(25-35) induced increases in latency
rats; Aβ(25-35) group treated with PDTC, P<0.05, not significantly different from sham groups
  test response (latency) vs Aβ(25-35) group with vehicle treatment: significantly less

## CC[C@H](C)[C@H](NC(=O)[C@H](CC(=O)O)NC(=O)[C@H](CC(C)C)NC(=O)[C@H](Cc1c[nH]cn1)NC(=O)[C@@H]1CSSC[C@H](N)C(=O)N[C@@H](CO)C(=O)N[C@H]2CSSC[C@H](NC(=O)[C@H](CCC(=O)O)NC(=O)[C@H](CCCCN)NC(=O)[C@H](CC(=O)O)NC(=O)[C@H](CCSC)NC(=O)[C@H](CC(C)C)NC(=O)[C@H](CO)NC(=O)[C@H](CO)NC2=O)C(=O)N[C@@H](C(C)C)C(=O)N[C@@H](Cc2ccc(O)cc2)C(=O)N[C@@H](Cc2ccccc2)C(=O)N1)C(=O)N[C@H](C(=O)N[C@@H](Cc1c[nH]c2ccccc12)C(=O)O)[C@@H](C)CC [Endothelin]
Male Wistar rats [1]; day 8 (first day of re-testing)
  Staircase test performance, contralateral paw: 66±15 % of pretreatment
Male Wistar rats [1]; during the post-treatment phase
  Staircase test performance, ipsilateral paw: 143±18 % of pretreatment
Male Wistar rats [2]
  Congo Red staining: stained positively for Congo Red
Male Wistar rats [3]; CA1 of the hippocampus
  average numbers of OX-6-stained microglia: 4.8±0.9
Male Wistar rats [3]; Hippocampus
  Average intensity measurements for GFAP: 152.9±11.0
Male Wistar rats [3]; Left Cortex
  APP Accumulation: 7.4 ± 1.4
Male Wistar rats [3]; Left Hippocampus
  GFAP Intensity: 152.1 ± 4.1
  OX6 Intensity: 104.2 ± 3.5
Male Wistar rats [3]; Right Cortex
  APP Accumulation: 13.8 ± 1.9
Male Wistar rats [3]; Right Hippocampus
  GFAP Intensity: 166.0 ± 3.8
  OX6 Intensity: 116.2 ± 2.9
Male Wistar rats [4]; Corpus Callosum
  APP immunostaining signal: n.s.
  COX-2 immunostaining signal: n.s.
  GFAP immunostaining signal: +
  NKκB(p65) immunostaining signal: n.s.
  OX-6 immunostaining signal: n.s.
  TNFα immunostaining signal: n.s.
  Tau-2 immunostaining signal: n.s.
Male Wistar rats [4]; Cortex
  APP immunostaining signal: n.s.
  COX-2 immunostaining signal: n.s.
  GFAP immunostaining signal: +
  NKκB(p65) immunostaining signal: n.s.
  OX-6 immunostaining signal: n.s.
  TNFα immunostaining signal: n.s.
  Tau-2 immunostaining signal: n.s.
Male Wistar rats [4]; Hippocampus
  APP immunostaining signal: n.s.
  COX-2 immunostaining signal: n.s.
  GFAP immunostaining signal: +
  NKκB(p65) immunostaining signal: n.s.
  OX-6 immunostaining signal: n.s.
  Tau-2 immunostaining signal: n.s.
Male Wistar rats [4]; Hypothalamus
  APP immunostaining signal: n.s.
  NKκB(p65) immunostaining signal: n.s.
  TNFα immunostaining signal: n.s.
Male Wistar rats [4]; Striatum (right)
  APP immunostaining signal: +
  COX-2 immunostaining signal: +
  Cas-3 immunostaining signal: +
  GFAP immunostaining signal: ++
  NKκB(p65) immunostaining signal: +
  OX-6 immunostaining signal: ++
  TNFα immunostaining signal: +
Male Wistar rats [4]; Thalamus (right)
  OX-6 immunostaining signal: +
  TNFα immunostaining signal: +
Male Wistar rats [4]; region of ischemic damage (right striatum)
  Tau-2 immunostaining: Increases
Male Wistar rats [4]; region of the infarct, punctate appearance
  IL-1β immunostaining: Increases
